Assay results reported in paper PMC9150124, “Design of a Potent, Selective, and Brain-Penetrant Inhibitor of Wnt-Deactivating Enzyme Notum by Optimization of a Crystallographic Fragment Hit” (Journal of Medicinal Chemistry, 2022).

Assays:
Assay in all cases: SelectScreen kinase profiling, SSBK ZLyte SP Technology
Assay type in all cases: biochemical
[1] = target: kinase named in conditions (Homo sapiens, UniProt O75116); conditions: ROCK2, 10 μM
Experimental: (§1) Kinase selectivity screening was performed by Thermo Fisher Scientific (Paisley, U.K.) in their SelectScreen Biochemical Kinase Profiling Service. Assay information and data are presented in the Supporting Information.
(§2) Kinase selectivity screening was performed by ThermoFisher Scientific (Paisley, U.K.) in their SelectScreenTM
(§3) Biochemical Kinase Profiling service .

[2] = target: kinase named in conditions (Homo sapiens, UniProt O75676); conditions: RPS6KA4 (MSK2), 10 μM
Experimental: as §1, §2, §3

[3] = target: kinase named in conditions (Homo sapiens, UniProt P00533, C797S); conditions: EGFR (ErbB1) C797S, 10 μM
Experimental: as §1, §2, §3

[4] = target: kinase named in conditions (Homo sapiens, UniProt P00533, G719C); conditions: EGFR (ErbB1) G719C, 10 μM
Experimental: as §1, §2, §3

[5] = target: kinase named in conditions (Homo sapiens, UniProt P00533, L858R/T790M); conditions: EGFR (ErbB1) T790M L858R, 10 μM
Experimental: as §1, §2, §3

[6] = target: kinase named in conditions (Homo sapiens, UniProt P06213); conditions: INSR, 10 μM
Experimental: as §1, §2, §3

[7] = target: kinase named in conditions (Homo sapiens, UniProt P07948); conditions: LYN A, 10 μM
Experimental: as §1, §2, §3

[8] = target: kinase named in conditions (Homo sapiens, UniProt P08581, M1250T); conditions: MET M1250T, 10 μM
Experimental: as §1, §2, §3

[9] = target: kinase named in conditions (Homo sapiens, UniProt P09619); conditions: PDGFRB (PDGFR beta), 10 μM
Experimental: as §1, §2, §3

[10] = target: kinase named in conditions (Homo sapiens, UniProt P19784); conditions: CSNK2A2 (CK2 alpha 2), 10 μM
Experimental: as §1, §2, §3

[11] = target: kinase named in conditions (Homo sapiens, UniProt P30530); conditions: AXL, 10 μM
Experimental: as §1, §2, §3

[12] = target: kinase named in conditions (Homo sapiens, UniProt P42685); conditions: FRK (PTK5), 10 μM
Experimental: as §1, §2, §3

[13] = target: kinase named in conditions (Homo sapiens, UniProt P43405); conditions: SYK, 10 μM
Experimental: as §1, §2, §3

[14] = target: kinase named in conditions (Homo sapiens, UniProt P49137); conditions: MAPKAPK2, 10 μM
Experimental: as §1, §2, §3

[15] = target: kinase named in conditions (Homo sapiens, UniProt P49761); conditions: CLK3, 10 μM
Experimental: as §1, §2, §3

[16] = target: kinase named in conditions (Homo sapiens, UniProt P51955); conditions: NEK2, 10 μM
Experimental: as §1, §2, §3

[17] = target: kinase named in conditions (Homo sapiens, UniProt P51957); conditions: NEK4, 10 μM
Experimental: as §1, §2, §3

[18] = target: kinase named in conditions (Homo sapiens, UniProt P54760); conditions: EPHB4, 10 μM
Experimental: as §1, §2, §3

[19] = target: kinase named in conditions (Homo sapiens, UniProt P54764); conditions: EPHA4, 10 μM
Experimental: as §1, §2, §3

[20] = target: kinase named in conditions (Homo sapiens, UniProt P68400); conditions: CSNK2A1 (CK2 alpha 1), 10 μM
Experimental: as §1, §2, §3

[21] = target: kinase named in conditions (Homo sapiens, UniProt Q02763); conditions: TEK (Tie2), 10 μM
Experimental: as §1, §2, §3

[22] = target: kinase named in conditions (Homo sapiens, UniProt Q05655); conditions: PRKCD (PKC delta), 10 μM
Experimental: as §1, §2, §3

[23] = target: kinase named in conditions (Homo sapiens, UniProt Q06187); conditions: BTK, 10 μM
Experimental: as §1, §2, §3

[24] = target: kinase named in conditions (Homo sapiens, UniProt Q08881); conditions: ITK, 10 μM
Experimental: as §1, §2, §3

[25] = target: kinase named in conditions (Homo sapiens, UniProt Q13557); conditions: CAMK2D (CaMKII delta), 10 μM
Experimental: as §1, §2, §3

[26] = target: kinase named in conditions (Homo sapiens, UniProt Q13976); conditions: PRKG1, 10 μM
Experimental: as §1, §2, §3

[27] = target: kinase named in conditions (Homo sapiens, UniProt Q14680); conditions: MELK, 10 μM
Experimental: as §1, §2, §3

[28] = target: kinase named in conditions (Homo sapiens, UniProt Q86V86); conditions: PIM3, 10 μM
Experimental: as §1, §2, §3

[29] = target: kinase named in conditions (Homo sapiens, UniProt Q8NE63); conditions: HIPK4, 10 μM
Experimental: as §1, §2, §3

[30] = target: kinase named in conditions (Homo sapiens, UniProt Q96RG2); conditions: PASK, 10 μM
Experimental: as §1, §2, §3

[31] = target: kinase named in conditions (Homo sapiens, UniProt Q96SB4); conditions: SRPK1, 10 μM
Experimental: as §1, §2, §3

[32] = target: kinase named in conditions (Homo sapiens, UniProt Q9NR20); conditions: read-out: % Inhibition mean
Experimental: as §1, §2, §3

[33] = target: kinase named in conditions (Homo sapiens, UniProt Q9UBS0); conditions: RPS6KB2 (p70S6Kb), 10 μM
Experimental: as §1, §2, §3

[34] = target: kinase named in conditions (Homo sapiens, UniProt Q9UHD2); conditions: TBK1, 10 μM
Experimental: as §1, §2, §3

[35] = target: kinase named in conditions (Homo sapiens, UniProt Q9Y463); conditions: DYRK1B, 10 μM
Experimental: as §1, §2, §3

kinase named in conditions (Homo sapiens, UniProt P00533, C797S), sequence (P00533 25-1210 C797S): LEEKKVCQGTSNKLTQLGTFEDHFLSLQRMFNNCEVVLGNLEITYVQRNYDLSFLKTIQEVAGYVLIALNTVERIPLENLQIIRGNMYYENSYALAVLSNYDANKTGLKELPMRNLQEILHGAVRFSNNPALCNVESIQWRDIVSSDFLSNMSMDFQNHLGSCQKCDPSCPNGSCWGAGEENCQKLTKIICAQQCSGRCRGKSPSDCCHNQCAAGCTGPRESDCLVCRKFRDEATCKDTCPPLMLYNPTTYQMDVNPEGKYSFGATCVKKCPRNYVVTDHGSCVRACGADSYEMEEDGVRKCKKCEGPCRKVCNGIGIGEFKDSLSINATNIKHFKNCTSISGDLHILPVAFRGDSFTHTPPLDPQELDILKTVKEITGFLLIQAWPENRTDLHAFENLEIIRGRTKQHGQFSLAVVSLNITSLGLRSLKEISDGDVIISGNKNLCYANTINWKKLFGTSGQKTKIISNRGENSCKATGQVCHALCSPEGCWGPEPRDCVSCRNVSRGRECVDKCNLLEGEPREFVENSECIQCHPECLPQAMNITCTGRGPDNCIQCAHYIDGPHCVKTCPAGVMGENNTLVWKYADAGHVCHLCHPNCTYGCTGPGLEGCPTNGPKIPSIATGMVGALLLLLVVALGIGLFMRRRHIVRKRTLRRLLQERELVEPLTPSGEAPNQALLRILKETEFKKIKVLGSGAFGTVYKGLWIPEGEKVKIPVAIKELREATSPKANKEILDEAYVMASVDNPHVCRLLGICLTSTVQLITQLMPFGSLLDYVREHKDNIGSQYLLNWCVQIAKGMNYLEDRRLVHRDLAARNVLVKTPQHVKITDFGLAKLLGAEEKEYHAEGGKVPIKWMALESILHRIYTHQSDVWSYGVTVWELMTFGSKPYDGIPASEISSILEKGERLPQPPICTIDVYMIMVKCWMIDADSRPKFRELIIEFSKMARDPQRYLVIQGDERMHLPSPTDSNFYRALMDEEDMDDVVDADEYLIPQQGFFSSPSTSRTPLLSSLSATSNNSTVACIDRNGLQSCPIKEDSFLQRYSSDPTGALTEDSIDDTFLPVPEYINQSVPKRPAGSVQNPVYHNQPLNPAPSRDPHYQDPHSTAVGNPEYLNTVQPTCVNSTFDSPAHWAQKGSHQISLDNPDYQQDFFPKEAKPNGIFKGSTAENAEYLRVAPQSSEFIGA
kinase named in conditions (Homo sapiens, UniProt Q14680), sequence (Q14680 whole entry): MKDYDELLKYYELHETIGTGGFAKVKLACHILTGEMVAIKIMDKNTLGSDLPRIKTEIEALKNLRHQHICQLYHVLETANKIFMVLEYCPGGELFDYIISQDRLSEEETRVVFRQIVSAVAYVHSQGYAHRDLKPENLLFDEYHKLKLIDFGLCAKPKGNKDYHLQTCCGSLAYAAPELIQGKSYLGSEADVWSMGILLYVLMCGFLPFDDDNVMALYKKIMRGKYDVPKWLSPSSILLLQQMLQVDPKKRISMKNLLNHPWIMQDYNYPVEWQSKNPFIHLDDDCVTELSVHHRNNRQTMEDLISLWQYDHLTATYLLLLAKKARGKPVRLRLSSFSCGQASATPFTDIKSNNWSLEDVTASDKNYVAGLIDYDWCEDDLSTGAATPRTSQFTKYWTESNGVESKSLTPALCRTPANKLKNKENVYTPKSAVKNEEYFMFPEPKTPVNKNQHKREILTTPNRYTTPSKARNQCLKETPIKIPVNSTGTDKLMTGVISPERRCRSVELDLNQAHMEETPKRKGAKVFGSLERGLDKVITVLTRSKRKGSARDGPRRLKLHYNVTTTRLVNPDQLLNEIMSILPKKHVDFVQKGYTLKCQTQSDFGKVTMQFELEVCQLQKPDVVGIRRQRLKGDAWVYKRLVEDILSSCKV
kinase named in conditions (Homo sapiens, UniProt Q05655), sequence (Q05655 whole entry): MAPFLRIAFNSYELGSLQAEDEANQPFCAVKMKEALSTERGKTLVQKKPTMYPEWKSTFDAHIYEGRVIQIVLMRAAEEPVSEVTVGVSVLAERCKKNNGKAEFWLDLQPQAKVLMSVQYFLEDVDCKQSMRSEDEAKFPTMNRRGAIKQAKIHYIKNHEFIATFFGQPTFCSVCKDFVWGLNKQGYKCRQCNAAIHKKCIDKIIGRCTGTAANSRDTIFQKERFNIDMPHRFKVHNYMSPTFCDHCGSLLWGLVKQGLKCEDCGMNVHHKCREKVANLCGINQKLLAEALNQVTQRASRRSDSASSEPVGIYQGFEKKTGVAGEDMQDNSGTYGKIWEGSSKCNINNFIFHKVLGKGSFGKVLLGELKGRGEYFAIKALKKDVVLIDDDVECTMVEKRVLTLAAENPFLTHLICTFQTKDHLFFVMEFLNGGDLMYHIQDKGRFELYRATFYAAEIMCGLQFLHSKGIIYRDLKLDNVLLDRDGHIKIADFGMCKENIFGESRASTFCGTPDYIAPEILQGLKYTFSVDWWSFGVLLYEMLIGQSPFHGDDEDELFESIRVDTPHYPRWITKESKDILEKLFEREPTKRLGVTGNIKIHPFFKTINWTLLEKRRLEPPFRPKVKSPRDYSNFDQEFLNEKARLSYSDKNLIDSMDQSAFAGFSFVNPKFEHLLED
kinase named in conditions (Homo sapiens, UniProt Q96SB4), sequence (Q96SB4 whole entry): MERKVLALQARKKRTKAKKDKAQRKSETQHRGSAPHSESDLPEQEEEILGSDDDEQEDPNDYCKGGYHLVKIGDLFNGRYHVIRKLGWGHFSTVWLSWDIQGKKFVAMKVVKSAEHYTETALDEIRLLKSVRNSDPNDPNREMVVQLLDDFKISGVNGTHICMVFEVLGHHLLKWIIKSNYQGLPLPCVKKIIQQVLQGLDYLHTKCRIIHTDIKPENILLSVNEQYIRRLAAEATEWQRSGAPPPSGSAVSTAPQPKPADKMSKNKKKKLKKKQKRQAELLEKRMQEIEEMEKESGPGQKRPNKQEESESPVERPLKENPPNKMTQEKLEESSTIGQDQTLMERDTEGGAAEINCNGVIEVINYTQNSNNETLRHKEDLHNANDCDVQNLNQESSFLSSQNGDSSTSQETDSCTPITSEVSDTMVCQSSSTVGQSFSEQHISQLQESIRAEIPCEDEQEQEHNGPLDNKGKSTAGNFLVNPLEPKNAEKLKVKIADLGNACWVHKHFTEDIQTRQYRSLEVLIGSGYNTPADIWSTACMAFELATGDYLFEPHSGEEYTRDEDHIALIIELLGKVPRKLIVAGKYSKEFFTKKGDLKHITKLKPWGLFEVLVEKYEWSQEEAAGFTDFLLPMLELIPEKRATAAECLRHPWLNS
kinase named in conditions (Homo sapiens, UniProt Q9Y463), sequence (Q9Y463 whole entry): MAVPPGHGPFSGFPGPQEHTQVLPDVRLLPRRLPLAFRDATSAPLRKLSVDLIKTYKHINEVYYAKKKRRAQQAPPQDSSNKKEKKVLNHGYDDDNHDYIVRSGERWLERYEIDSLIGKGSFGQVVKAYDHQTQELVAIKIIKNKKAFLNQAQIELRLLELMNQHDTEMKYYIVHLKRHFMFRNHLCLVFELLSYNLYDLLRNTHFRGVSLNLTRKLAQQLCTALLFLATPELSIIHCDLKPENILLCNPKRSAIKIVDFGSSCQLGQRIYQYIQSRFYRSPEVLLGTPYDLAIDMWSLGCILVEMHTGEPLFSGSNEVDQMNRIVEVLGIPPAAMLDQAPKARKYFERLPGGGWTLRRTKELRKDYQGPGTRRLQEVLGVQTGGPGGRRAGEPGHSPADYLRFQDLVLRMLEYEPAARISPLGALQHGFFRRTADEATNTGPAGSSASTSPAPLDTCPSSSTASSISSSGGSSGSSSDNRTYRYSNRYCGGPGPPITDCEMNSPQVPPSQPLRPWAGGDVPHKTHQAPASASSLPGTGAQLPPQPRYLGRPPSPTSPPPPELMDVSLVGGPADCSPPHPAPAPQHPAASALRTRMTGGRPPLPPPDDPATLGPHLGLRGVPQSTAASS
kinase named in conditions (Homo sapiens, UniProt Q08881), sequence (Q08881 whole entry): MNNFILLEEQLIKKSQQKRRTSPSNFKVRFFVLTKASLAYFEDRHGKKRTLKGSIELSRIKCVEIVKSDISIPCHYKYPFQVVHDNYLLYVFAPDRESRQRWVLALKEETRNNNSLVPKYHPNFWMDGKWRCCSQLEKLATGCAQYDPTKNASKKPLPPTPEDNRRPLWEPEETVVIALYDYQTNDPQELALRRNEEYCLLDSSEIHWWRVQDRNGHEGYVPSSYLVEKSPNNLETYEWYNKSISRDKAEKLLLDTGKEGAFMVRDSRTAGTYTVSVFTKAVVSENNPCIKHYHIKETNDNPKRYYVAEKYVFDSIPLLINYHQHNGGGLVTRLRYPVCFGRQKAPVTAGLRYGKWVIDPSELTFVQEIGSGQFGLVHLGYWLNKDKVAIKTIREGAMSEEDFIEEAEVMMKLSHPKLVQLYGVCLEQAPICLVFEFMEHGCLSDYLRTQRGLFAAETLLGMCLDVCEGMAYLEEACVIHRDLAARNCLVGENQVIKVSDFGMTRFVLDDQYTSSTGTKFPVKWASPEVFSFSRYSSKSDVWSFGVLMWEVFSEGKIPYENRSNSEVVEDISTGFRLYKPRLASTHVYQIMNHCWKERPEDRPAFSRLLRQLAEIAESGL
kinase named in conditions (Homo sapiens, UniProt P42685), sequence (P42685 whole entry): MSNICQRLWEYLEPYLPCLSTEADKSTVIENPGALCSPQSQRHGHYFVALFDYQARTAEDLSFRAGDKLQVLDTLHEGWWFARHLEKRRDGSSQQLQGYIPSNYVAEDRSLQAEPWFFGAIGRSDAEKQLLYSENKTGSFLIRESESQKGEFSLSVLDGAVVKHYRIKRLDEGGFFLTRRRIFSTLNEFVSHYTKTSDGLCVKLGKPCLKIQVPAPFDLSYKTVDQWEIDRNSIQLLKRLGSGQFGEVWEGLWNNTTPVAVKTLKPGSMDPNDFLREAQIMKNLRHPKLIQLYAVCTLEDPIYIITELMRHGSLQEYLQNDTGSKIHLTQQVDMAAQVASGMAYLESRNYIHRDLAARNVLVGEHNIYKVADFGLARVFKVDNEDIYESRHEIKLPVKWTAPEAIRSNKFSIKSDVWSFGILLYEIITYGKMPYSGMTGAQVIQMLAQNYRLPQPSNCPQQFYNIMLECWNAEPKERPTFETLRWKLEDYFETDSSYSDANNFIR

## FC(F)(F)c1c(Cl)ccc(-n2ccnn2)c1Cl [8l, 1-(2,4-Dichloro-3-(trifluoromethyl)phenyl)-1H-1,2,3-triazole]
[1]
  inhibition at 10 µM: 16%
[2]
  inhibition at 10 µM: 1%
[3]
  inhibition at 10 µM: -2%
[4]
  inhibition at 10 µM: 5%
[5]
  inhibition at 10 µM: 12%
[6]
  inhibition at 10 µM: 6%
[7]
  inhibition at 10 µM: -1%
[8]
  inhibition at 10 µM: 3%
[9]
  inhibition at 10 µM: 20%
[10]
  inhibition at 10 µM: 17%
[11]
  inhibition at 10 µM: 4%
[12]
  inhibition at 10 µM: 1%
[13]
  inhibition at 10 µM: 6%
[14]
  inhibition at 10 µM: 1%
[15]
  inhibition at 10 µM: 2%
[16]
  inhibition at 10 µM: -11%
[17]
  inhibition at 10 µM: 3%
[18]
  inhibition at 10 µM: 1%
[19]
  inhibition at 10 µM: 1%
[20]
  inhibition at 10 µM: 5%
[21]
  inhibition at 10 µM: -1%
[22]
  inhibition at 10 µM: -4%
[23]
  inhibition at 10 µM: 21%
[24]
  inhibition at 10 µM: -4%
[25]
  inhibition at 10 µM: 7%
[26]
  inhibition at 10 µM: 15%
[27]
  inhibition at 10 µM: 12%
[28]
  inhibition at 10 µM: 6%
[29]
  inhibition at 10 µM: -2%
[30]
  inhibition at 10 µM: -1%
[31]
  inhibition at 10 µM: 2%
[32]
  inhibition at 10 µM: 1%
[33]
  inhibition at 10 µM: 4%
[34]
  inhibition at 10 µM: 0%
[35]
  inhibition at 10 µM: 16%
